Source: US6762181B1, “Aminomethylpyrrolidine derivatives having aromatic substituents” (Daiichi Pharmaceutical Co., Ltd., priority 1999, dated 2004)
≈ marks a conversion by molar mass, not a printed value. Like-named read-outs stand apart in the source and are kept apart here.

Columns and labels:
Test in all cases: Antibacterial activity (MIC), Japan Society of Chemotherapy standard method
Format in all cases: cell-based
X. maltophilia IID 1275 = tested on: X. maltophilia IID 1275
Experimental: (§1) Antibacterial activities of the compounds of the invention were measured in accordance with the standard method specified by the Japan Society of Chemotherapy, with the results shown in the following table as MIC values (μg/ml). In this connection, MIC values of levofloxacin (LVFX), ciprofloxacin (CPFX) and 5-amino-7-[3-(R)-[1-(S)-aminoethyl]pyrrolidin-1-yl]-6-fluoro-1-[2-(S)-fluoro-1-(R)-cyclopropyl]-8-methyl-1,4-dihydro-4-oxoquinoline-3-carboxylic acid (control drug 1) described in WO 9623782 are also shown for the sake of comparison with the MIC values of the compounds of the invention.

K. pneumoniae TYPE 1 = tested on: K. pneumoniae TYPE 1
Experimental: as §1

Ser. marcescens 10100 = tested on: Ser. marcescens 10100
Experimental: as §1

Str. pyrogenes G-36 = tested on: Str. pyrogenes G-36
Experimental: as §1

E. coli NIHJ = tested on: E. coli NIHJ
Experimental: as §1

S. flexneri 2A 5503 = tested on: S. flexneri 2A 5503
Experimental: as §1

Ps. aeruginosa 32121 = tested on: Ps. aeruginosa 32121
Experimental: as §1

Pr. Vulgaris O8601 = tested on: Pr. Vulgaris O8601
Experimental: as §1

S. aureus 870307 = tested on: S. aureus 870307
Experimental: as §1

S. epidermidis 56500 = tested on: S. epidermidis 56500
Experimental: as §1

Ps. aeruginosa 32104 = tested on: Ps. aeruginosa 32104
Experimental: as §1

S. aureus FDA 209P = tested on: S. aureus FDA 209P
Experimental: as §1

Str. pneumoniae J24 = tested on: Str. pneumoniae J24
Experimental: as §1

E. faecalis ATCC 19433 = tested on: E. faecalis ATCC 19433
Experimental: as §1

[1] = Serratia marcescens, 10100, Ser. marcescens 10100, read-out: MIC
[2] = Escherichia coli, read-out: MIC
[3] = Shigella flexneri, 2A5503, S. flexneri 2A 5503, read-out: MIC
[4] = Staphylococcus epidermidis, read-out: MIC
[5] = Pseudomonas aeruginosa, 32104, Ps. aeruginosa 32104, read-out: MIC
[6] = Staphylococcus aureus, FDA209P, read-out: MIC
[7] = Streptococcus pneumoniae, J24, Str. pneumoniae J24, read-out: MIC
[8] = Stenotrophomonas maltophilia, IID1275, X. maltophilia IID 1275, read-out: MIC
[9] = Klebsiella pneumoniae, TYPE1, K. pneumoniae TYPE 1, read-out: MIC
[10] = Pseudomonas aeruginosa, 32121, Ps. aeruginosa 32121, read-out: MIC
[11] = Proteus vulgaris, read-out: MIC
[12] = Staphylococcus aureus, 870307, S. aureus 870307, read-out: MIC
[13] = Enterococcus faecalis, ATCC19433, E. faecalis ATCC 19433, read-out: MIC

| Structure (SMILES) | MIC (X. maltophilia IID 1275; X. maltophilia IID 1275) | MIC (K. pneumoniae TYPE 1; K. pneumoniae TYPE 1) | MIC (Ser. marcescens 10100; [1]) | MIC (Str. pyrogenes G-36) | MIC (E. coli NIHJ; [2]) | MIC (S. flexneri 2A 5503; [3]) | MIC (Ps. aeruginosa 32121; Ps. aeruginosa 32121) | MIC (Pr. Vulgaris O8601) | MIC (S. aureus 870307; S. aureus 870307) | MIC (S. epidermidis 56500; [4]) | MIC (Ps. aeruginosa 32104; [5]) | MIC (S. aureus FDA 209P; [6]) | MIC (Str. pneumoniae J24; [7]) | MIC (X. maltophilia IID 1275; [8]) | MIC (K. pneumoniae TYPE 1; [9]) | MIC (Str. pyrogenes G-36; read-out: MIC) | MIC (Ps. aeruginosa 32121; [10]) | MIC (Pr. Vulgaris O8601; [11]) | MIC (S. aureus 870307; [12]) | MIC (E. faecalis ATCC 19433; [13]) | also measured |
| --- | --- | --- | --- | --- | --- | --- | --- | --- | --- | --- | --- | --- | --- | --- | --- | --- | --- | --- | --- | --- | --- |
| Nc1c(F)c(N2CC[C@@H](C(N)c3ccccc3)C2)c(F)c2c1c(=O)c(C(=O)O)cn2[C@@H]1C[C@@H]1F (single isomer, unassigned) [Example 1] | 0.1 µg/mL (≈ 0.212 µM) | 0.05 µg/mL (≈ 0.106 µM) | 0.1 µg/mL (≈ 0.212 µM) | 0.013 µg/mL (≈ 0.0275 µM) | ≤ 0.003 µg/mL | 0.006 µg/mL (≈ 0.0127 µM) | 0.1 µg/mL (≈ 0.212 µM) | 0.1 µg/mL (≈ 0.212 µM) | 0.025 µg/mL (≈ 0.0529 µM) | ≤ 0.003 µg/mL | 0.2 µg/mL (≈ 0.423 µM) | ≤ 0.003 µg/mL | 0.006 µg/mL (≈ 0.0127 µM) | – | – | – | – | – | – | – | MIC (E. faecalis ATCC 19433; E. faecalis ATCC 19433): 0.05 µg/mL (≈ 0.106 µM) |
| Nc1c(F)c(N2CC[C@@H](C(N)c3ccccc3)C2)c(F)c2c1c(=O)c(C(=O)O)cn2[C@@H]1C[C@@H]1F (single isomer, unassigned) [Example 2] | 0.025 µg/mL (≈ 0.0529 µM) | 0.013 µg/mL (≈ 0.0275 µM) | – | ≦0.003 μg/ml | – | – | 0.025 µg/mL (≈ 0.0529 µM) | 0.025 µg/mL (≈ 0.0529 µM) | ≦0.003 μg/ml | – | – | – | – | – | – | – | – | – | – | – | MIC (Ser. marcescens 10100; Ser. marcescens 10100): 0.05 µg/mL (≈ 0.106 µM); MIC (E. coli NIHJ): ≦0.003 μg/ml; MIC (S. flexneri 2A 5503; S. flexneri 2A 5503): ≦0.003 μg/ml; MIC (S. epidermidis 56500): ≦0.003 μg/ml; MIC (Ps. aeruginosa 32104; Ps. aeruginosa 32104): 0.1 µg/mL (≈ 0.212 µM); MIC (S. aureus FDA 209P): ≦0.003 μg/ml; MIC (Str. pneumoniae J24; Str. pneumoniae J24): ≦0.003 μg/ml; MIC (E. faecalis ATCC 19433; E. faecalis ATCC 19433): 0.006 µg/mL (≈ 0.0127 µM) |
| O=C(O)c1cn(C2CC2)c2cc(N3CCNCC3)c(F)cc2c1=O [CPFX, ciprofloxacin, reference compound] | – | – | 0.025 µg/mL (≈ 0.0754 µM) | – | ≤ 0.003 µg/mL | 0.006 µg/mL (≈ 0.0181 µM) | – | – | – | 0.2 µg/mL (≈ 0.604 µM) | 0.05 µg/mL (≈ 0.151 µM) | 0.1 µg/mL (≈ 0.302 µM) | 0.1 µg/mL (≈ 0.302 µM) | 0.78 µg/mL (≈ 2.35 µM) | 0.025 µg/mL (≈ 0.0754 µM) | 1.56 µg/mL (≈ 4.71 µM) | 0.025 µg/mL (≈ 0.0754 µM) | ≤ 0.003 µg/mL | 3.13 µg/mL (≈ 9.45 µM) | 0.78 µg/mL (≈ 2.35 µM) | – |
| Cc1c(N2CC[C@@H]([C@H](C)N)C2)c(F)c(N)c2c(=O)c(C(=O)O)cn([C@@H]3C[C@@H]3F)c12 [Control drug 1, 5-amino-7-[3-(R)-[1-(S)-aminoethyl]pyrrolidin-1-yl]-6-fluoro-1-[2-(S)-fluoro-1-(R)-cyclopropyl]-8-methyl-1,4-dihydro-4-oxoquinoline-3-carboxylic acid, reference compound] | – | – | 0.1 µg/mL (≈ 0.246 µM) | – | 0.006 µg/mL (≈ 0.0148 µM) | 0.006 µg/mL (≈ 0.0148 µM) | – | – | – | ≤ 0.003 µg/mL | 0.1 µg/mL (≈ 0.246 µM) | ≤ 0.003 µg/mL | ≤ 0.003 µg/mL | 0.2 µg/mL (≈ 0.492 µM) | 0.05 µg/mL (≈ 0.123 µM) | ≤ 0.003 µg/mL | 0.05 µg/mL (≈ 0.123 µM) | 0.013 µg/mL (≈ 0.032 µM) | 0.025 µg/mL (≈ 0.0615 µM) | 0.025 µg/mL (≈ 0.0615 µM) | – |
| COc1c(N2CC[C@@H](C(N)c3ccccc3)C2)c(F)cc2c(=O)c(C(=O)O)cn([C@@H]3C[C@@H]3F)c12 (stereo partly drawn) [Example 3, 7-[3-(R)-(1-Amino-1-Phenylmethyl)-1-Pyrrolidinyl]-6-Fluoro-1-[2-(S)-Fluoro-1-(R)-Cyclopropyl]-1,4-Dihydro-8-Methoxy-4-Oxoquinoline-3-Carboxylic Acid] | – | – | 0.05 µg/mL (≈ 0.106 µM) | – | ≤ 0.003 µg/mL | ≤ 0.003 µg/mL | – | – | – | ≤ 0.003 µg/mL | 0.1 µg/mL (≈ 0.213 µM) | ≤ 0.003 µg/mL | ≤ 0.003 µg/mL | 0.025 µg/mL (≈ 0.0532 µM) | 0.025 µg/mL (≈ 0.0532 µM) | ≤ 0.003 µg/mL | 0.05 µg/mL (≈ 0.106 µM) | 0.025 µg/mL (≈ 0.0532 µM) | ≤ 0.003 µg/mL | 0.013 µg/mL (≈ 0.0277 µM) | – |
